Test results published in EP1790345A1, “Triazin beta-secretase inhibitors” (Esbatech AG, priority 2005, dated 2007).

Tests used:
recombinant BACE enzyme = recombinant BACE enzyme (Homo sapiens, UniProt P56817); assay: BACE FRET assay (in vitro); format: biochemical; details: concentration that reduces the activity of BACE to 50 %
Description: (§1) The tests performed were • a) Aβ1-40 (Sw) bioassay, which measures the amount of the amyoid peptide Aβ1-40 in the supernatant of Swedish APP695 transgenic HEK293 cells in the presence of the various BACE inhibitors via ELISA (enzyme-linked immunosorbent assay). In the table, the inhibitory concentration that reduces Aβ1-40 secretion to 50 % is indicated (IC50), or the % reduction of Aβ1-40 secretion at the indicated concentration. • b) FRET assay, which measures the activity of recombinant BACE enzyme in the presence of the various BACE inhibitors via a FRET (fluorescence resonance energy transfer)-based readout. In the table, the inhibitory concentration that reduces the activity of BACE to 50 % is indicated (IC50), or the % reduction of the activity of BACE at the indicated concentration. • c) An additional in silico test was performed for the compounds listed in Tables 1 to 3. The compounds were docked with the FFLD approach (Budin et al., Biol. Chem. 382, 1365-1372, 2001) and their binding energy was evaluated with the LIECE method (Huang and Caflisch, J. Med. Chem. 47, 5791-5797, 2004). The affinity evaluated with LIECE is in the low micromolar range for most of these compounds.

[1] = system: Swedish APP695 transgenic HEK293 cells; assay: Aβ1-40 (Sw) bioassay (ELISA of Aβ1-40 in cell supernatant); format: cell-based; details: for % reduction of Aβ1-40 secretion: Swedish APP695 transgenic HEK293 cells, ELISA; for IC50: Homo sapiens, HEK293, concentration that reduces Aβ1-40 secretion to 50 %, read-out: IC50 Aβ1-40(sw) bioassay (cell-based)
Description: as §1

recombinant BACE enzyme, sequence (P56817 46-501, species assumed): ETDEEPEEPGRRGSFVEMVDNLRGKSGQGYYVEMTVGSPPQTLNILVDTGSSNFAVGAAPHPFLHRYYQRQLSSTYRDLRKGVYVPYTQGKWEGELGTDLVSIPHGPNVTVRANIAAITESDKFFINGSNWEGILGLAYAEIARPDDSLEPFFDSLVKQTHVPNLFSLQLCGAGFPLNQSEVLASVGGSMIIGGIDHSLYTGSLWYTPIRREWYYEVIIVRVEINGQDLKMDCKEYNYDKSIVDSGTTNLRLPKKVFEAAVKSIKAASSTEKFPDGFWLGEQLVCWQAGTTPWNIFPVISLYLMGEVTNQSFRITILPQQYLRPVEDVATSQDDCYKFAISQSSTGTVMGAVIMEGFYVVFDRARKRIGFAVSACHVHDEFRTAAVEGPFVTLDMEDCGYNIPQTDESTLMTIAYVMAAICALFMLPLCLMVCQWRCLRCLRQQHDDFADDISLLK

SMILES | IC50 (recombinant BACE enzyme) [µM] | also measured
Oc1c(Br)cc(Br)cc1/C=N/Nc1nc(Nc2ccccc2)nc(Nc2ccccc2)n1 [Compound 251A07] | 10.6 | –
Cc1ccc(Nc2nc(N/N=C/c3cc(Br)cc(Br)c3O)nc(N3CCOCC3)n2)cc1 [Compound 205C07] | 48.1 | % reduction of Aβ1-40 secretion ([1]; at 50 µM): No (50 µM)
O=C(O)c1cc(-c2ccc(C=NNc3nc(Nc4ccc(F)cc4)nc(N4CCOCC4)n3)o2)ccc1Cl [Compound 250C04] | 7.1 | % reduction of Aβ1-40 secretion ([1]; at 25 µM): 0 (25 µM)
CNc1nc(N/N=C/c2ccc(-c3ccc([N+](=O)[O-])cc3)o2)nc(Nc2ccccc2)n1 [Compound 251C08] | 24.4 | –
Cc1ccc(Cl)cc1-c1ccc(/C=N/Nc2nc(N3CCOCC3)nc(N3CCOCC3)n2)o1 [Compound 251C10] | > 100 | –
Oc1c(Br)cc(/C=N/Nc2nc(Nc3ccccc3)nc(Nc3ccccc3)n2)cc1Br [Compound 202E09] | 53.9 | % reduction of Aβ1-40 secretion ([1]; at 5 µM): 25% (5 µM)
Cc1ccc(C)c(Nc2nc(N/N=C/c3cc(Br)c(O)c(Br)c3O)nc(N3CCOCC3)n2)c1 [Compound 205A04] | 81.8 | % reduction of Aβ1-40 secretion ([1]; at 5 µM): No (5 µM)
Oc1c(Cl)cc(Br)cc1/C=N/Nc1nc(Nc2ccccc2)nc(Nc2ccccc2)n1 [Compound 201G11] | 11.9 | % reduction of Aβ1-40 secretion ([1]; at 5 µM): 26% (5 µM)
Oc1c(Cl)cc(Cl)cc1/C=N/Nc1nc(Nc2ccccc2)nc(Nc2ccccc2)n1 [Compound 201C08] | 11.2 | % reduction of Aβ1-40 secretion ([1]; at 5 µM): 25% (5 µM)
Clc1ccccc1-c1ccc(/C=N/Nc2nc(Nc3ccccc3)nc(Nc3ccccc3)n2)o1 [Compound 251F09] | 188 | –
O=C(O)c1cc(-c2ccc(/C=N/Nc3nc(Nc4ccccc4)nc(N4CCCCC4)n3)o2)ccc1Cl [Compound 250A05] | 142 | IC50 [1]: 10 to 20 µM
COc1ccc(Nc2nc(N/N=C/c3cc(Br)cc(Br)c3O)nc(N3CCOCC3)n2)cc1 [Compound 251A09] | 34.4 | –
Oc1c(I)cc(I)cc1/C=N/Nc1nc(Nc2ccccc2)nc(Nc2ccccc2)n1 [Compound 201G06] | 25.5 | % reduction of Aβ1-40 secretion ([1]; at 5 µM): No (5 µM)
Cc1ccc(Nc2nc(N/N=C/c3cc(Br)cc(Br)c3O)nc(N3CCOCC3)n2)cc1Cl [Compound 206E02] | 20.6 | % reduction of Aβ1-40 secretion ([1]; at 50 µM): 27% (50 µM)
Oc1c(Br)cc(Br)cc1/C=N/Nc1nc(Nc2ccccc2)nc(N2CCCC2)n1 [Compound 251B07] | 45.4 | –
Oc1c(Br)cc(/C=N/Nc2nc(N3CCCCC3)nc(N3CCCCC3)n2)c(O)c1Br [Compound 251G09] | 170 | –
COc1ccc(Nc2nc(NN=Cc3ccc(-c4cccc(C(=O)O)c4)o3)nc(Nc3ccccc3)n2)cc1 [Compound 250B04] | 66.6 | IC50 [1]: 10 to 20 µM
O=C(O)c1cc(-c2ccc(C=NNc3nc(Nc4ccc(F)cc4)nc(N4CCCCC4)n3)o2)ccc1O [Compound 250B05] | 30.9 | IC50 [1]: 10 to 20 µM
O=[N+]([O-])c1cc(-c2ccc(/C=N/Nc3nc(N4CCOCC4)nc(N4CCOCC4)n3)o2)ccc1Cl [Compound 251A10] | 124 | –
